Consider four compounds from publication PMC7609719 (2020).

Test [1] deals with ATP10 (DNA, aptamer, inosine at 9 (G9I)) ACCTGGGGGAGTATTGCGGAGGAAGGT
The test is described as follows: ITC, one-site fit. To be noted: Na+ (120 mM NaCl); 10 mM sodium acetate pH 5.5, 20 °C.

Test [2] relates to ATP7 (DNA, aptamer) ACCTGGGCGCGGGAGTATTGCGGAGCGAGGAAGGT
Nature of the test: ITC, two independent sites fit. As to conditions: Na+ (120 mM NaCl); 10 mM sodium acetate pH 5.5, 20 °C; 100 µM DNA; site 1 of 2. (Isothermal titration calorimetry measures the heat released or taken up as one component is titrated into another.)

Test [3] concerns ATP9 (DNA, aptamer, inosine at 22 (G22I)) ACCTGGGGGAGTATTGCGGAGGAAGGT
Nature of the test: ITC, one-site fit. To be noted: Na+ (120 mM NaCl); 10 mM sodium acetate pH 5.5, 20 °C.

Test [4] relates to ATP3 (DNA, aptamer) ACCTGGGGGAGTATTGCGGAGGAAGGT
Nature of the test: UV melting, 260 nm. As to conditions: Na+ (120 mM NaCl); 10 mM sodium acetate pH 5.5; 95% ligand-bound; derived from two Tm (45.2 ± 0.5, 44.2 ± 1.5).

In test [5] the test system is Apt1d (DNA, aptamer) TTCGGGGAGTATTGCGGAGGAA
Nature of the test: ITC. As to conditions: Na+ (100 mM NaCl), Mg2+ (2 mM MgCl2); 10 mM HEPES pH 7.6, 20 °C; 100 µM DNA.

In test [6] the test system is ATP17 (DNA, aptamer) ACCTGGGCGGGGAGTATTGCGGACGAGGAAGGT
The test is described as follows: ITC, two-site cooperative fit. As to conditions: Na+ (120 mM NaCl); 10 mM sodium acetate pH 5.5, 20 °C; 100 µM DNA; site 1 of 2.

The subject of test [7] is Apt1d-GC2 (DNA, aptamer) TTCGGGGCGTATTGCGCAGGAA
The test is described as follows: ITC. As to conditions: Na+ (100 mM NaCl), Mg2+ (2 mM MgCl2); 10 mM HEPES pH 7.6, 20 °C; 100 µM DNA.

Test [8] relates to Apt1d-GC1 (DNA, aptamer) TTCGGGGAGTATTGCGCAGGAA
The test is described as follows: ITC. As to conditions: Na+ (100 mM NaCl), Mg2+ (2 mM MgCl2); 10 mM HEPES pH 7.6, 20 °C; 100 µM DNA.

For test [9], the system named is ATP7 (DNA, aptamer) ACCTGGGCGCGGGAGTATTGCGGAGCGAGGAAGGT
The test is described as follows: UV melting, 260 nm. As to conditions: Na+ (120 mM NaCl); 10 mM sodium acetate pH 5.5; 95% ligand-bound; derived from two Tm (55.6 ± 0.5, 55.8 ± 0.6).

In test [10] the test system is ATP3 (DNA, aptamer) ACCTGGGGGAGTATTGCGGAGGAAGGT
The test is described as follows: ITC, two-site cooperative fit. To be noted: Na+ (120 mM NaCl), 10 mM sodium acetate pH 5.5, 20 °C, site 1 of 2.

On to `Nc1ncnc2c1ncn2[C@@H]1O[C@H](CO)[C@@H](O)[C@H]1O`, for which the affinity in [1] came out at 188 ± 37 µM; in test [3], 212 ± 69 µM. Also, the results for the Kd1 in [2], in [6] and in [10] (average of fits at 10-100 µM aptamer) were 1.3 ± 0.5 µM, 44 ± 8 µM and 25 ± 15 µM, respectively. Also, the “melting temperature change (ΔTm, bound minus free)” value in test [4] was -1.0 °C; in test [9] it was 0.2 °C. Moreover, the binding entry in test [5] was “yes”; in [7], “no”; in test [8], “no”.
With `Nc1ncnc2c1ncn2[C@@H]1O[C@H](COP(=O)(O)O)[C@@H](O)[C@H]1O`, the Kd1 in test [10] (70 µM DNA) was 86 ± 26 µM.
In the case of `Nc1ncnc2c1ncn2[C@@H]1O[C@H](COP(=O)(O)OP(=O)(O)O)[C@@H](O)[C@H]1O`, in [10] (70 µM DNA), the Kd1 is 101 ± 33 µM.
`Nc1ncnc2c1ncn2[C@@H]1O[C@H](COP(=O)(O)OP(=O)(O)OP(=O)(O)O)[C@@H](O)[C@H]1O`: the Kd1 in [10] (70 µM DNA) is given as 133 ± 55 µM.
